# Target: T1, human 11βHSD1 enzyme (Homo sapiens, UniProt P28845)
# T1 construct: N terminal 6-His tagged full length human 11βHSD1 enzyme; 6-His (N); made in house
# Assay: 11βHSD1 competitive HTRF assay (conversion of cortisone to cortisol)
# Format: biochemical
# Conditions: for IC50: baculovirus expressed N terminal 6-His tagged full length human 11βHSD1, cortisone 160 nM, 25 minutes at 37° C.; for activity in the 11βHSD1 assay: at 30 μM
# Procedure: The conversion of cortisone to the active steroid cortisol by 11βHSD1 oxo-reductase activity, can be measured using a competitive homogeneous time resolved fluorescence assay (HTRF) (CisBio International, R&D, Administration and Europe Office, In Vitro Technologies—HTRF®/Bioassays BP 84175, 30204 Bagnols/Cèze Cedex, France. Cortisol bulk HTRF kit: Cat No. 62CORPEC).
# The evaluation of compounds described herein was carried out using a baculovirus expressed N terminal 6-His tagged full length human 11βHSD1 enzyme(*1). The enzyme was purified from a detergent solublised cell lysate, using a copper chelate column. Inhibitors of 11βHSD1 reduce the conversion of cortisone to cortisol, which is identified by an increase in signal, in the above assay.
# Compounds to be tested were dissolved in dimethyl sulphoxide (DMSO) to 10 mM and diluted further in assay buffer containing 10% DMSO to 10 fold the final assay concentration. Diluted compounds were then plated into black 384 well plates (Matrix, Hudson N.H., USA).
# The assay was carried out in a total volume of 20 μl consisting of cortisone (Sigma, Poole, Dorset, UK, 160 nM), glucose-6-phosphate (Roche Diagnostics, 1 mM), NADPH (Roche Diagnostics, 100 μM), glucose-6-phosphate dehydrogenase (Roche Diagnostics, 12.5 μg/ml), EDTA (Sigma, Poole, Dorset, UK, 1 mM), assay buffer (K2HPO4/KH2PO4, 100 mM) pH 7.5, recombinant 11βHSD1 (1.5 μg/ml) plus test compound. The assay plates were incubated for 25 minutes at 37° C. after which time the reaction was stopped by the addition of 10 μl of 0.5 mM glycerrhetinic acid plus cortisol-XL665. 10 μl of anti-cortisol Cryptate was then added and the plates sealed and incubated for 6 hours at room temperature. Fluorescence at 665 nm and 620 nm was measured and the 665 nm:620 nm ratio calculated using an Envision plate reader.
# T1 sequence (P28845 whole entry): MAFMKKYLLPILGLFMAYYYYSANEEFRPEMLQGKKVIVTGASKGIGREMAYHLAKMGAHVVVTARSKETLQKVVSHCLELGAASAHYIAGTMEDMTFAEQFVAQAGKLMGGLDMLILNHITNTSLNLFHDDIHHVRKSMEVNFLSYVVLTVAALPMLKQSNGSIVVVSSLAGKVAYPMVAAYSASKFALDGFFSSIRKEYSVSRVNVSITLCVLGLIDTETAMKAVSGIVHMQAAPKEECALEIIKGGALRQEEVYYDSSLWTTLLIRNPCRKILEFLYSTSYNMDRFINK
IC50 [µM],Compound,activity in the 11βHSD1 assay
0.89,"O=C(NC1CCCCC1)c1cccnc1SCCc1ccccn1 [Example 3, N-Cyclohexyl-2-(2-pyridin-2-ylethylsulfanyl)pyridine-3-carboxamide]",–
0.027,"O=C(NC1CCCCC1)c1cccnc1SCCc1ccccc1 [Example 4, N-Cyclohexyl-2-phenethylsulfanyl-pyridine-3-carboxamide]",–
–,O=C(NC1CCCCC1)c1ccc(C(F)(F)F)nc1SCCc1ccccc1 [N-cyclohexyl-2-(phenethylsulfanyl)-6-trifluoromethylpyridine-3-carboxamide],did not show activity
–,O=C(O)c1ccccc1CCSc1ncccc1C(=O)NC1CCCCC1 [N-cyclohexyl-2-[2-(2-carboxyphenyl)ethyl)sulfanyl]pyridine-3-carboxamide],did not show activity

# Reference: US20100022589A1, “PYRIDINE-3-CARBOXAMIDE COMPOUNDS AND THEIR USE FOR INHIBITING 11-BETA-HYDROXYSTEROID DEHYDROGENASE” (priority 2006, published 2010)
